Results taken from US7432403B2, “Cyclic palladium compounds having coordinated thereto bis (diphenylphosphine) ferrocene ligands which inhibit the activity of proteins and enzymes and treatment of diseases and disorders associated therewith” (Fundação De Amparo À Pesquisa Do Estado de São Paulo, priority 2002, dated 2008).
Read-outs that look alike come from different tables or passages of the source.

Experiments:
[1] = Evaluation of acute toxicity, fixed dosage test, 14-day observation; format: in vivo, mice; conditions: one dose intraperitoneally
Method: The concentration of cyclopalladated compounds of the invention as used in this study is being determined from the realization of a fixed dosage test, in which the substance to be tested is given to mice under specific dosage, which is selected from previously fixed dosages, according to classifications from ruling institutions, for which the maximum concentration to be tested should not surpass 2000 mg/kg.
After drug administration, a 14-day observation period follows. The dosage under which signs of acute toxicity are observed, such as changes in hair, mucosa and skin, as well as the occurrence of diarrhea and convulsions, conjunctivitis, excitement or slow movements, is used to graduate or classify the tested material.
Assayed compounds are diluted in saline containing 10% DMSO and then 0.2 ml of that solution are intraperitoneally given to the animals. Therefore, groups of 10 animals (5 males and 5 females) were treated with various doses of the compounds being studied. The control animals received only saline with 10% DMSO. After the end of the treatment, the animals remained in observation for a period of 14 days.

[2] = system: Ehrlich's ascitic tumor; assay: Life extension of animals with Ehrlich's ascitic tumor; format: in vivo, mice; conditions: 1 mg/kg subcutaneously, four consecutive days, start 72 hours after inoculation
Excerpt: With the purpose to observe a possible protection of treated animals with the compounds of the invention, a life extension curve was drafted, considering animals with the Ehrlich's ascitic tumor, be them treated or not.
The Life Extension Curve of Kaplan-Meier was used to analyse the possibility of survival. The comparison between both groups (holders of tumor vs. holders of tumor/treated) was made by the Log-Rank method—non-parametrical procedures (Cox-Mantel). ANOVA variation analysis was used for the analysis of various groups. In case of significant difference, the Tukey's test was applied. In cases in which the number of samples between two groups was small, the Wilcoxon's non-parametrical test was used.
To develop the Ehrlich's ascitic tumor, mice are intraperitoneally inoculated with 0.1 ml of a suspension of tumor cells containing 10^6 cells, originating from the peritoneal cavity of holder mice. After taking out the ascitic liquid from the peritoneum of mice holding the tumor of Ehrlich, the number and viability of cells are determined by using trypan blue colorant in a Neubauer chamber.
With the purpose to observe possible protection of treated animals with the compounds [Pd2(C^2,N-S-dmpa)2(μ-dpp)Cl2] e [Pd2(C^2,N-S-dmpa)2(μ-dppf)(N3)2] (as per scheme C shown in generic structures), a life extension curve was made. […]

[3] = system: HL60 cells; assay: Morphological aspect of treated HL60 cells; format: cell-based; conditions: 72 hours
Excerpt: From the results obtained by experiments as illustrated by Example 11, we verified cytotoxic activity of the cyclopalladated compounds in both studied lines, with results obtained from the two compounds being similar (FIGS. 10 and 11). […] On the other hand, the morphological aspect of leukemic cells HL60 treated with cyclopalladated compounds is that of cells in scheduled cell death process or apoptosis, as illustrated by FIG. 12.

[4] = biological target: T1, ACE (Mus musculus, UniProt P09470); conditions: administration one hour after radiation; cited from earlier work
T1 construct: host or cells: mouse plasma, in vivo
T1 sequence (P09470 35-1312): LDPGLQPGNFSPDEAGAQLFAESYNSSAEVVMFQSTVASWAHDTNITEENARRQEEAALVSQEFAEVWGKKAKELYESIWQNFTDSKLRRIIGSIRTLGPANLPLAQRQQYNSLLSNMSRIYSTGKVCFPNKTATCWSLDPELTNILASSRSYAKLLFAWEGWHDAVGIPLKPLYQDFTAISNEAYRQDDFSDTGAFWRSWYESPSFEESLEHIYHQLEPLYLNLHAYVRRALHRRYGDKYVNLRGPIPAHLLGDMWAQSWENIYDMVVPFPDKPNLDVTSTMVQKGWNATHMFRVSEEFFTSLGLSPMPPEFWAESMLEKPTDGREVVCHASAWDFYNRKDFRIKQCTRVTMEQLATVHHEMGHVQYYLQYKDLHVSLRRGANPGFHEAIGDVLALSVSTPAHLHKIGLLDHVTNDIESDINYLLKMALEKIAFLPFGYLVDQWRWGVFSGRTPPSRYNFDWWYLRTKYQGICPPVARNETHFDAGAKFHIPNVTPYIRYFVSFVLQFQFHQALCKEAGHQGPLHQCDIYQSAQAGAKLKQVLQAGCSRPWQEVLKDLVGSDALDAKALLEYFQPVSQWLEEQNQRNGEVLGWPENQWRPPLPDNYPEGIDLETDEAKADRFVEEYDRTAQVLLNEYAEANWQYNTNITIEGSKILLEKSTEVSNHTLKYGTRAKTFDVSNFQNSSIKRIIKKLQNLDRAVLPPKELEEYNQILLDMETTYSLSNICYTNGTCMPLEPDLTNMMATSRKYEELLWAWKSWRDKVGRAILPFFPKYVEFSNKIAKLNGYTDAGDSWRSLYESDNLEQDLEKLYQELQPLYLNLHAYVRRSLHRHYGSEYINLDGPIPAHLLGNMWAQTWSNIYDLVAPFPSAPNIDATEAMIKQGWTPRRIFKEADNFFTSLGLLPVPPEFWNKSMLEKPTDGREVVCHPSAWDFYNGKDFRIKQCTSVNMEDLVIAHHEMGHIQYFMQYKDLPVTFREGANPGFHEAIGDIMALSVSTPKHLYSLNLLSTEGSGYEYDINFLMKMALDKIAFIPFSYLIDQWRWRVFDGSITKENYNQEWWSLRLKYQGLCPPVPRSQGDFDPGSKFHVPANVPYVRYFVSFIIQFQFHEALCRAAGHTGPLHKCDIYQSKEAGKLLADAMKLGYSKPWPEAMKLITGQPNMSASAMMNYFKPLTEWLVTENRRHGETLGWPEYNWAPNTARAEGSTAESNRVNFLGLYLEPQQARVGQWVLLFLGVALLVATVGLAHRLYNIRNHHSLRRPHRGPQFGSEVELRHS

[5] = biological target: T2, Cathepsin B (Homo sapiens, UniProt P07858); assay: Cathepsin B endopeptidase activity, hydrolysis of fluorogenic substrate Z-Phe-Arg-MCA (spectrofluorimetry); format: biochemical; conditions: for Ki: pH 6.4, 37° C., substrate Z-Phe-Arg-MCA
T2 construct: purchased Calbiochem Co
Method: Cathepsin B and papain were supplied by the company Calbiochem Co. and the concentration of active enzymes was determined by titulation using the cysteine-protease inhibitor known as E-64. Cathepsin B and papain were packed at 4° C. within 50 mM in sodium acetate buffer (pH 5.0) containing 10 μM MMTS. The fluorogenic substrate amidomethylcoumaryl Z-Phe-Arg-MCA, tripsin and the irreversible papain inhibitor E-64 were supplied by Sigma.
The influence of the organometal compounds on the activity of endopeptidase cathepsin B was determined by spectrofluorimetry, using the fluorogenic substrate Z-Phe-Arg-MCA. This peptide is a good substrate for cathepsin B with kcat/Ks=4.5 10^5 M^−1.s^−1 and was chosen so to locate residues Phe and Arg in P2 and P1, respectively. The substrate covers the main linkage sites S2, S1 and S′1 with cysteine-proteases similar to papain (Turk, D. et al, Revised definition of substrate binding sites of papain-like cysteine proteases, J. Biol. Chem.; 1998, 379, 137-147).
The intensities of fluorescence signals were monitored by a thermostatic spectrofluorimetry Hitachi F-2000. Wavelength was calibrated at 380 nm for excitation and 440 nm for emission. The activation of the enzyme was made by incubation for five minutes at 37° C. in a buffer solution of 50 mM sodium phosphate (pH 6.4) containing NaCl 200 mM, EDTA 1 mM and DTT 2 mM. Measurements were taken in the same activation buffer of cathepsin B and kynetic standards were set up by taking the initial hydrolysis rate under various concentrations of the substrate in the presence or absence of different concentrations of organometal compounds. The results were analysed by non-linear regression by using the software GraFit 3.01 (Erithacus Software Ltd.).
The Kynetic model of Scheme 1 describes the effect of heparin over the hydrolysis of Z-Phe-Arg-MCA by cathepsin B:
In which S represents the substrate Z-Phe-Arg-MCA; I represents the cyclometal compound; E represents cathepsin B; KS represents the dissociation constant of the substrate; KI represents the apparent dissociation constant of the organometal; α is a disturbance standard of KS; and β is a disturbance standard of Vmax (kcat), with the standards being in accordance to the equation: […]
Data were treated according to Equation 1, by using non-linear regression and the values for the constants were calculated. […] The hydrolysis rate of the second order substrates was the same, kcat/Ks=4.5 10^5 M^−1s^−1, in the presence or absence of [Pd (C^2,N-(R+dmpa)(dppf)]N3.

In the case of C[C@H]1c2cccc[c]2[Pd-2]([Cl])([P+](c2ccccc2)(c2ccccc2)[c-]2cccc2)[N+]1(C)C.C[C@H]1c2cccc[c]2[Pd-2]([Cl])([P+](c2ccccc2)(c2ccccc2)[c-]2cccc2)[N+]1(C)C.[Fe+2] (stereo partly drawn) [4a, [Pd2(C^2,N-S-dmpa)2(μ-dppf)Cl2]], the Signs and symptoms ([1]; 500 mg/kg) is reported as “Lack of acute toxicity signs”.

With C[C@@H]1c2cccc[c]2[Pd-2]([Cl])([P+](c2ccccc2)(c2ccccc2)[c-]2cccc2)[N+]1(C)C.C[C@@H]1c2cccc[c]2[Pd-2]([Cl])([P+](c2ccccc2)(c2ccccc2)[c-]2cccc2)[N+]1(C)C.[Fe+2] (stereo partly drawn) [4b, [Pd2(C^2,N-R+ dmpa)2(μ-dppf)Cl2]] the Signs and symptoms ([1]; 10 mg/kg, listed as R(^+)dmpa Cl^− dppf (1:1), 10 mg/kg) was “Signs of conjunctivitis”.

For C[C@H]1c2cccc[c]2[Pd-2]([Cl])([P+](c2ccccc2)(c2ccccc2)[c-]2cccc2)[N+]1(C)C.[Fe+2].c1ccc(P(c2ccccc2)[c-]2cccc2)cc1 (stereo partly drawn) [[Pd(C^2,N-(S-dmpa)(dppf)Cl]], the “life extension of animals holding the ascitic tumor of Ehrlich” value [2] was “increased the life extension” and the “morphological aspect of treated HL60 cells” value [3] was “aspects of an apoptosis cell”.

For NCCCC[C@H](N[C@@H](CCc1ccccc1)C(=O)O)C(=O)N1CCC[C@H]1C(=O)O [lisinopryl], the “inhibition of murine plasma activity for ACE” value [4] is listed as 100%.

With [Pd(C^2,N-(R+dmpa)(dppf)]N3 [2a] the “inhibition of Cathepsin B” value [5] was 81%, the “product formation constant reduced to” value [5] was 36 and the “reduction of kcat in the presence of the compound” value [5] was 5.6 times. The “α (disturbance standard of KS)” value [5] was 0.19±0.02, the “β (disturbance standard of Vmax, kcat)” value [5] was 0.18±0.02 and the β/α [5] was 1.1±0.1. For the same compound, the “increase of the affinity between Cathepsin B and the substrate Z-Phe-Arg-MCA” value ([5]; in the presence of the compound) was 5.3 time, the Ki ([5]; read-out: dissociation constant KH, compound linked to free Cathepsin B (E)) was 12 ± 1 µM and the Ki ([5]; read-out: dissociation constant αKH, compound linked to the enzyme-substrate (ES) complex) was 2.4 ± 0.3 µM. The “Ks value in the presence of the organometal compound” value ([5]; reduced from 110±15 without compound) was 21 ± 2 µM.
